For this assay, the system named is C57BL/6 mice. As to the kind of experiment: animal or person. In kind it is in vivo. To be noted: Mus musculus, sc, 0.5 h, s.c. administration, 30 min, 55° C. water, read-out: ED50 (mg/kg) at 30 min on C57BL/6 mice in Warm-water Tail-flick Test. A general note: In hot-plate and tail-flick tests a longer latency is read as antinociception.
`CCOCC1(CCc2ccccc2)CCN(Cc2ccc(CC(C)O)cc2)CC1` (stereo not drawn) [Compound 163, 1-(4-((4-(ethoxymethyl)-4-phenethylpiperidin-1-yl)methyl)phenyl)propan-2-ol]: the ED50 is over 10 mg/kg.
Consider `CC(=O)Nc1ccc(CN2CCC(CCc3ccccc3)(C3(C)CC=CCO3)CC2)cc1.Cl` (stereo not drawn) [Compound 164, N-(4-((4-(2-methyl-3,6-dihydro-2H-pyran-2-yl)-4-phenethylpiperidin-1-yl)methyl)phenyl)acetamide HCl], for which the ED50 was over 10 mg/kg.
Regarding `CC(=O)Nc1ccc(CN2CCC(CCc3ccccc3)(C3(C)CCCCO3)CC2)cc1` (stereo not drawn) [Compound 165, N-(4-((4-(2-methyltetrahydro-2H-pyran-2-yl)-4-phenethylpiperidin-1-yl)methyl)phenyl)acetamide], the ED50 was under 10 mg/kg.
As to `CCOCC1(/C=C/c2ccccn2)CCN(Cc2ccc(NC(C)=O)cc2)CC1` [Compound 166, (E)-N-(4-((4-(ethoxymethyl)-4-(2-(pyridin-2-yl)vinyl)piperidin-1-yl)methyl)phenyl)acetamide], the ED50 was over 10 mg/kg.
As for `CCOCC1(/C=C/c2ccsc2)CCN(Cc2ccc(NC(C)=O)cc2)CC1` [Compound 167, (E)-N-(4-((4-(ethoxymethyl)-4-(2-(thiophen-3-yl)vinyl)piperidin-1-yl)methyl)phenyl)acetamide], the figure is over 10 mg/kg.
For `CCOCC1(/C=C/c2ccc3ccccc3c2)CCN(Cc2ccc(NC(C)=O)cc2)CC1` [Compound 168, (E)-N-(4-((4-(ethoxymethyl)-4-(2-(naphthalen-2-yl)vinyl)piperidin-1-yl)methyl)phenyl)acetamide], the ED50 is over 10 mg/kg.
Consider `CCOCC1(CCc2ccccc2)CCN(Cc2ccc(CNC(C)=O)cc2)CC1.Cl` [Compound 169, N-(4-((4-(ethoxymethyl)-4-phenethylpiperidin-1-yl)methyl)benzyl)acetamide HCl], for which the ED50 was over 10 mg/kg.
Regarding `CCOCC1(CCc2ccccc2OC)CCN(Cc2ccc(NC(C)=O)cc2)CC1` [Compound 170, N-(4-((4-(ethoxymethyl)-4-(2-methoxy-phenethyl)piperidin-1-yl)methyl)phenyl)acetamide], the ED50 was over 10 mg/kg.
As for `CC(=O)Nc1ccc(CN2CCC(CCc3cccs3)(C3CCO3)CC2)cc1` (stereo not drawn) [Compound 171, N-(4-((4-(oxetan-2-yl)-4-(2-(thiophen-2-yl)ethyl)piperidin-1-yl)methyl)phenyl)acetamide], the figure is under 10 mg/kg.
As for `CC(=O)Nc1ccc(CN2CCC(CCc3cccs3)(C3CCCO3)CC2)cc1` (stereo not drawn) [Compound 172, N-(4-((4-(tetrahydrofuran-2-yl)-4-(2-(thiophen-2-yl)ethyl)piperidin-1-yl)methyl)phenyl)acetamide], the figure is under 10 mg/kg; as for `CCOCC1(CCc2ccccc2)CCN(Cc2ccc(NC=O)s2)CC1` [Compound 173, N-(5-((4-(ethoxymethyl)-4-phenethylpiperidin-1-yl)methyl)thiophen-2-yl)formamide], over 10 mg/kg; as for `CCOCC1(CCc2ccccc2)CCN(c2ccc(CNC(C)=O)cc2)CC1` [Compound 174, N-(4-(4-(ethoxymethyl)-4-phenethylpiperidin-1-yl)benzyl)acetamide], over 10 mg/kg.
As to `CC(=O)Nc1ccc(CN2CCC(CCc3ccccc3)(C3C=CC(C)O3)CC2)cc1` (stereo not drawn) [Compound 175, N-(4-((4-(5-methyl-2,5-dihydrofuran-2-yl)-4-phenethylpiperidin-1-yl)methyl)phenyl)acetamide], the ED50 is under 10 mg/kg.
With `CCOCC1(CCc2ccccc2)CCN(Cc2cccc(NC(C)=O)c2)CC1` [Compound 176, N-(3-((4-(ethoxymethyl)-4-phenethylpiperidin-1-yl)methyl)phenyl)acetamide], the ED50 was over 10 mg/kg.
`CCOCC1(CCc2cccs2)CCN(Cc2ccc(NC(C)=O)cc2)C1` (stereo not drawn) [Compound 177, N-(4-((3-(ethoxymethyl)-3-(2-(thiophen-2-yl)ethyl)pyrrolidin-1-yl)methyl)phenyl)acetamide]: the ED50 is under 10 mg/kg.
As for `CCOCC1(CCc2ccsc2)CCN(Cc2ccc(NC(C)=O)cc2)C1` (stereo not drawn) [Compound 178, N-(4-((3-(ethoxymethyl)-3-(2-(thiophen-3-yl)ethyl)pyrrolidin-1-yl)methyl)phenyl)acetamide], the figure is under 10 mg/kg; as for `CC(=O)Nc1ccc(CN2CCC(CCc3ccccc3)(C3C=CCO3)C2)cc1` (stereo not drawn) [Compound 179, N-(4-((3-(2,5-dihydrofuran-2-yl)-3-phenethylpyrrolidin-1-yl)methyl)phenyl)acetamide], under 10 mg/kg; as for `CC(=O)Nc1ccc(CN2CCC(CCc3ccccc3)(C3CCCO3)C2)cc1` (stereo not drawn) [Compound 180, N-(4-((3-phenethyl-3-(tetrahydrofuran-2-yl)pyrrolidin-1-yl)methyl)phenyl)acetamide], over 10 mg/kg.
The result for `CCOCC1(CCc2ccccc2)CCN(Cc2ccc(CC(=O)OC)cc2)CC1` [Compound 181, methyl 2-(4-((4-(ethoxymethyl)-4-phenethylpiperidin-1-yl)methyl)phenyl)acetate] reads over 10 mg/kg.
The result for `CC(=O)Nc1ccc(CN2CCC(CCc3cccs3)(C3C=CCO3)CC2)cc1` (stereo not drawn) [Compound 182, N-(4-((4-(2,5-dihydrofuran-2-yl)-4-(2-(thiophen-2-yl)ethyl)piperidin-1-yl)methyl)phenyl)acetamide] reads over 10 mg/kg; that for `CC(=O)Nc1ccc(CN2CCC(CCc3cccs3)(c3ccccn3)CC2)cc1` [Compound 183, N-(4-((4-(pyridin-2-yl)-4-(2-(thiophen-2-yl)ethyl)piperidin-1-yl)methyl)phenyl)acetamide], over 10 mg/kg.
In the case of `CC(=O)Nc1ccc(CN2CCC(CCc3ccsc3)(c3ccccn3)CC2)cc1` [Compound 184, N-(4-((4-(pyridin-2-yl)-4-(2-(thiophen-3-yl)ethyl)piperidin-1-yl)methyl)phenyl)acetamide], the ED50 is over 10 mg/kg.
As for `CC(=O)Nc1ccc(CN2CCC(CCc3ccsc3)(C3CCO3)CC2)cc1` (stereo not drawn) [Compound 185, N-(4-((4-(oxetan-2-yl)-4-(2-(thiophen-3-yl)ethyl)piperidin-1-yl)methyl)phenyl)acetamide], the figure is under 10 mg/kg; as for `CC(=O)Nc1ccc(CN2CCC(CCc3ccsc3)(C3CCCO3)CC2)cc1` (stereo not drawn) [Compound 186, N-(4-((4-(tetrahydrofuran-2-yl)-4-(2-(thiophen-3-yl)ethyl)piperidin-1-yl)methyl)phenyl)acetamide], over 10 mg/kg.
As for `CCOCC1(CCc2ccccc2)CCN(Cc2ccc(-c3nnc(N)o3)cc2)CC1` [Compound 187, 5-(4-((4-(ethoxymethyl)-4-phenethylpiperidin-1-yl)methyl)phenyl)-1,3,4-oxadiazol-2-amine], the figure is over 10 mg/kg; as for `CCOCC1(CCc2ccccc2)CCN(Cc2ccc(-c3nnc(OCC)[nH]3)cc2)CC1` [Compound 188, 1-(4-(5-ethoxy-4H-1,2,4-triazol-3-yl)benzyl)-4-(ethoxymethyl)-4-phenethylpiperidine], over 10 mg/kg.
Turning to `CC(=O)Nc1ccc(CN2CCC(CCc3ccccc3)(c3ccco3)C2)cc1` (stereo not drawn) [Compound 189, N-(4-((3-(furan-2-yl)-3-phenethylpyrrolidin-1-yl)methyl)phenyl)acetamide], the ED50 is over 10 mg/kg.
As for `CC(=O)Nc1ccc(CN2CCC(CCc3ccsc3)(c3ccccn3)C2)cc1` (stereo not drawn) [Compound 190, N-(4-((3-(pyridin-2-yl)-3-(2-(thiophen-3-yl)ethyl)pyrrolidin-1-yl)methyl)phenyl)acetamide], the figure is over 10 mg/kg; as for `CC(=O)Nc1ccc(CN2CCC(CCc3ccsc3)(C3CCO3)C2)cc1` (stereo not drawn) [Compound 191], under 10 mg/kg; as for `CCn1nnn(CCN2CCC(CCc3ccccc3)(C3CCCO3)C2)c1=O` (stereo not drawn) [Compound 192, 1-ethyl-4-(2-(3-phenethyl-3-(tetrahydrofuran-2-yl)pyrrolidin-1-yl)ethyl)-1H-tetrazol-5(4H)-one], over 10 mg/kg.
As for `c1ccc(CCC2(C3CCCO3)CCN(Cc3cccn3-c3cccnc3)C2)cc1` (stereo not drawn) [Compound 193, 3-(2-((3-phenethyl-3-(tetrahydrofuran-2-yl)pyrrolidin-1-yl)methyl)-1H-pyrrol-1-yl)pyridine], the figure is over 10 mg/kg; as for `c1ccc(CCC2(C3CCCO3)CCN(Cc3ccccc3-c3cccs3)C2)cc1` (stereo not drawn) [Compound 194, 3-phenethyl-3-(tetrahydrofuran-2-yl)-1-(2-(thiophen-2-yl)benzyl)pyrrolidine], over 10 mg/kg.
Regarding `c1ccc(CCC2(C3CCCO3)CCN(Cc3ccccc3-c3ccco3)C2)cc1` (stereo not drawn) [Compound 195, 1-(2-(furan-2-yl)benzyl)-3-phenethyl-3-(tetrahydrofuran-2-yl)pyrrolidine], the ED50 was over 10 mg/kg.
Regarding `Clc1ccccc1CN1CCC(CCc2ccccc2)(C2CCCO2)C1` (stereo not drawn) [Compound 196, 1-(2-chlorobenzyl)-3-phenethyl-3-(tetrahydrofuran-2-yl)pyrrolidine], the ED50 is over 10 mg/kg.
With `Cc1nc(CN2CCC(CCc3ccccc3)(C3CCCO3)C2)cs1` (stereo not drawn) [Compound 197, 2-methyl-4-((3-phenethyl-3-(tetrahydrofuran-2-yl)pyrrolidin-1-yl)methyl)thiazole], the ED50 is over 10 mg/kg.
The result for `Cn1cc(CN2CCC(CCc3ccccc3)(C3CCCO3)C2)cn1` (stereo not drawn) [Compound 198, 1-methyl-4-((3-phenethyl-3-(tetrahydrofuran-2-yl)pyrrolidin-1-yl)methyl)-1H-pyrazole] reads under 10 mg/kg.
With `Fc1ccc(-n2cccn2)c(CN2CCC(CCc3ccccc3)(C3CCCO3)C2)c1` (stereo not drawn) [Compound 199, 1-(4-fluoro-2-((3-phenethyl-3-(tetrahydrofuran-2-yl)pyrrolidin-1-yl)methyl)phenyl)-1H-pyrazole], the ED50 was over 10 mg/kg.
`CC(=O)Nc1ccc(CN2CCC(CCc3ccccc3)(C3(C)CCCO3)C2)cc1` (stereo not drawn) [Compound 200, N-(4-((3-(2-methyltetrahydro-furan-2-yl)-3-phenethylpyrrolidin-1-yl)methyl)phenyl)acetamide]: the ED50 is under 10 mg/kg.
The result for `CC(=O)Nc1ccc(CN2CCC(CCc3ccccc3)(C3OCC3(C)C)C2)cc1` (stereo not drawn) [Compound 201, N-(4-((3-(3,3-dimethyloxetan-2-yl)-3-phenethylpyrrolidin-1-yl)methyl)phenyl)acetamide] reads under 10 mg/kg.
